Assay: Oxidation potential by cyclic voltammetry
Format: physicochemical
Conditions: test method of the specification (dimethylformamide, tetrapropylammonium perchlorate)
Description: More specifically, a test sample is dissolved to a concentration of 1×10^−6 to 1×10^−4 mol/liter in a solvent such as dimethylformamide or acetonitrile containing a supporting electrolyte such as sodium perchlorate or tetrapropylammonium perchlorate and the oxidation potential is measured as a value to SCE (saturated calomel electrode) using a cyclic voltammetry. This value sometimes deviates on the order of tens of millivolt due to the effect of liquid junction potential, liquid resistance of sample solution, or the like, however, the reproducibility of potential can be guaranteed by adding a standard sample (for example, hydroquinone). In order to univocally specify the potential, in the present invention, the value (SCE standard) measured in a dimethylformamide (concentration of dye: 0.001·moldm^−3) containing 0.1 mol·dm^−3 of tetrapropylammonium perchlorate as the supporting electrolyte is used as the oxidation potential of the dye. In the case of a water-soluble dye, the dye is sometimes hardly dissolved directly in N,N-dimethylformamide. In such a case, the oxidation potential is measured after dissolving the dye by using water in a small amount as much as possible and then diluting it with N,N-dimethylformamide to have a water content of 2% or less.

oxidation potential	SMILES
1.32 V (vs SCE)	Cc1c(C#N)c(Nc2ccc(S(=O)(=O)[O-])cc2)nc(Nc2ccc(S(=O)(=O)[O-])cc2)c1N=Nc1sc(N=Nc2cc(C(=O)[O-])cc(C(=O)[O-])c2)cc1C#N.[Li+].[Li+].[Li+].[Li+] [BK-4]
1.25 V (vs SCE)	CC(C)(C)c1nn(-c2nc(Nc3cc(C(=O)[O-])cc(C(=O)[O-])c3)nc(Nc3cc(C(=O)[O-])cc(C(=O)[O-])c3)n2)c(N)c1/N=N/c1ncns1.[Na+].[Na+].[Na+].[Na+] [Y-2]
1.29 V (vs SCE)	Cc1cc(C)c(S(=O)(=O)[O-])c(C)c1Nc1nc(N(c2nc3ccc(S(=O)(=O)[O-])cc3s2)c2c(C)cc(C)c(S(=O)(=O)O)c2C)ccc1/N=N/c1c(C#N)c(C(C)(C)C)nn1-c1nc2ccc(S(=O)(=O)[O-])cc2s1.[K+].[K+].[Na+] [M-3]
1.22 V (vs SCE)	CC(C)CSc1nnc(/N=N/c2c(C(C)(C)C)nn(-c3nc(Nc4cc(C(=O)[O-])cc(C(=O)[O-])c4)nc(Nc4cc(C(=O)[O-])cc(C(=O)[O-])c4)n3)c2N)s1.[K+].[K+].[K+].[K+] [Y-3]

From patent US7267715B2, “Ink and ink set” (Fujifilm Corporation, priority 2003, dated 2007)
